Measured values taken from article PMC5064235, “Structure-Based Design of Novel Tetrahydro-Beta-Carboline Derivatives with a Hydrophilic Side Chain as Potential Phosphodiesterase Inhibitors” (Scientia Pharmaceutica, 2015).

Tests used:
recombinant human PDE5 = target: T1, recombinant human PDE5 (Homo sapiens, UniProt O76074); assay: In vitro PDE5 inhibitory activity (IMAP FP phosphodiesterase assay); format: biochemical; conditions: purified PDE5, 50 nM TAMRA-cGMP, 1.5 h at 30 °C; 10 concentrations, at least two replicates; read-out: PDE5 Inhibition IC50
T1 construct: purchased BPS Biosciences, San Diego, CA, USA
Protocol: Phosphodiesterase Assay: 5 U/mL of purified PDE5 (BPS Biosciences, San Diego, CA, USA) was added to the wells of black 96-well non-binding plates. Immediately, the protein was treated with the compound or vehicle control and 50 nM TAMRA-cGMP and 50 nM Fluourescein-cAMP (Molecular Devices, Sunnyvale, CA, USA) were added to each assay well. The plates were incubated for 1.5 h at 30 °C. After incubation, the IMAP FP Phosphodiesterase Evaluation Assay (Molecular Devices, Sunnyvale, CA, USA) binding reagent was added to each well and the plates were incubated for an additional 30 min at 30 °C. FP was measured according to manufacturer’s specifications using a Biotech Synergy 4 plate reader. PDE activity was expressed by an IC50 value (50% inhibitory concentration). Data analysis was done through dose-response analysis, which was repeated at least twice to confirm the reproducibility of the IC50 values.
All the synthesized final THβC compounds were tested for their ability to inhibit recombinant human PDE5. Most of the compounds were evaluated in two steps. The first step was the determination of the percentage inhibition at a screening dose of 10 μM performed in triplicate. For compounds displaying a percentage of inhibition >50%, the IC50 was then determined by testing a range of 10 concentrations with at least two replicates per concentration (Table 2).

Row | SMILES | melting point | IC50 (recombinant human PDE5)
1 | O=C1[C@H]2Cc3c([nH]c4ccccc34)[C@@H](c3ccc(Cl)cc3)N2C(=O)CN1CCO [Compound 6a, (6R,12aR)6-(4-Chloro-phenyl)-2-(2-hydroxy-ethyl)-2,3,6,7,12,12a-hexahydro-pyrazino[1’,2’:1,6]pyrido[3,4-b]indole-1,4-dione] | 230 to 233 °C | > 10 µM
2 | NCCN1CC(=O)N2[C@H](c3ccc(Cl)cc3)c3[nH]c4ccccc4c3C[C@@H]2C1=O [Compound 6b, (6R,12aR)-2-(2-Amino-ethyl)-6-(4-chloro-phenyl)-2,3,6,7,12,12a-hexahydro-pyrazino[1’,2’:1,6]pyrido[3,4-b]indole-1,4-dione] | 231 to 234 °C | 3.6 µM
3 | O=C1[C@H]2Cc3c([nH]c4ccccc34)[C@@H](c3ccc(Cl)cc3)N2C(=O)CN1CCCCO [Compound 6c, (6R,12aR)-6-(4-Chloro-phenyl)-2-(4-hydroxy-butyl)-2,3,6,7,12,12a-hexahydropyrazino[1’,2’:1,6]pyrido[3,4-b]indole-1,4-dione] | 228 to 230 °C | 0.12 µM
4 | NCCCCN1CC(=O)N2[C@H](c3ccc(Cl)cc3)c3[nH]c4ccccc4c3C[C@@H]2C1=O [Compound 6d, (6R,12R)-2-(4-Amino-butyl)-6-(4-chloro-phenyl)-2,3,6,7,12,12a-hexahydro-pyrazino[1’,2’:1,6]pyrido[3,4-b]indole-1,4-dione] |  | > 10 µM
5 | O=C1[C@H]2Cc3c([nH]c4ccccc34)[C@H](c3ccc(Cl)cc3)N2C(=O)CN1CCO [Compound 6e, (6S,12aR)-6-(4-Chloro-phenyl)-2-(2-hydroxy-ethyl)-2,3,6,7,12,12a-hexahydro-pyrazino[1’,2’:1,6]pyrido[3,4-b]indole-1,4-dione] | 202 to 206 °C | 4.7 µM
6 | O=C1[C@H]2Cc3c([nH]c4ccccc34)[C@H](c3ccc(Cl)cc3)N2C(=O)CN1CCCCO [Compound 6g, (6S,12aR)-6-(4-Chloro-phenyl)-2-(4-hydroxy-butyl)-2,3,6,7,12,12a-hexahydropyrazino[1’,2’:1,6]pyrido[3,4-b]indole-1,4-dione] | 200 to 203 °C | > 10 µM
7 | NCCCCN1CC(=O)N2[C@@H](c3ccc(Cl)cc3)c3[nH]c4ccccc4c3C[C@@H]2C1=O [Compound 6h, (6S,12R)-2-(4-Amino-butyl)-6-(4-chloro-phenyl)-2,3,6,7,12,12a-hexahydro-pyrazino[1’,2’:1,6]pyrido[3,4-b]indole-1,4-dione] | 200 to 202 °C | 3.1 µM
8 | O=C1[C@@H]2Cc3c([nH]c4ccccc34)[C@H](c3ccc(Cl)cc3)N2C(=O)CN1CCO [Compound 6i, (6S,12aS)-6-(4-Chloro-phenyl)-2-(2-hydroxy-ethyl)-2,3,6,7,12,12a-hexahydro-pyrazino[1’,2’:1,6]pyrido[3,4-b]indole-1,4-dione] | 231 to 233 °C | > 10 µM
9 | NCCCCN1CC(=O)N2[C@@H](c3ccc(Cl)cc3)c3[nH]c4ccccc4c3C[C@H]2C1=O [Compound 6l, (6S,12S)-2-(4-Amino-butyl)-6-(4-chloro-phenyl)-2,3,6,7,12,12a-hexahydro-pyrazino[1’,2’:1,6]pyrido[3,4-b]indole-1,4-dione] |  | > 10 µM
10 | NCCCCN1CC(=O)N2[C@H](c3ccc(Cl)cc3)c3[nH]c4ccccc4c3C[C@H]2C1=O [Compound 6p, (6R,12S)-2-(4-Amino-butyl)-6-(4-chloro-phenyl)-2,3,6,7,12,12a-hexahydro-pyrazino[1’,2’:1,6]pyrido[3,4-b]indole-1,4-dione] |  | > 10 µM
11 | O=C1[C@H]2Cc3c([nH]c4ccccc34)[C@@H](c3ccc(Br)cc3)N2C(=O)CN1CCCCO [Compound 7c, (6R,12R)-6-(4-Bromo-phenyl)-2-(4-hydroxy-butyl)-2,3,6,7,12,12a-hexahydropyrazino[1’,2’:1,6]pyrido[3,4-b]indole-1,4-dione] |  | 0.1 µM
12 | O=C1[C@H]2Cc3c([nH]c4ccccc34)[C@H](c3ccc(Br)cc3)N2C(=O)CN1CCCCO [Compound 7g, (6S,12R)-6-(4-Bromo-phenyl)-2-(4-hydroxy-butyl)-2,3,6,7,12,12a-hexahydropyrazino[1’,2’:1,6]pyrido[3,4-b]indole-1,4-dione] |  | > 10 µM
13 | O=C1[C@@H]2Cc3c([nH]c4ccccc34)[C@H](c3ccc(Br)cc3)N2C(=O)CN1CCCCO [Compound 7k, (6S,12S)-6-(4-Bromo-phenyl)-2-(4-hydroxy-butyl)-2,3,6,7,12,12a-hexahydropyrazino[1’,2’:1,6]pyrido[3,4-b]indole-1,4-dione] |  | > 10 µM
14 | O=C1[C@@H]2Cc3c([nH]c4ccccc34)[C@@H](c3ccc(Br)cc3)N2C(=O)CN1CCCCO [Compound 7o, (6R,12S)-6-(4-Bromo-phenyl)-2-(4-hydroxy-butyl)-2,3,6,7,12,12a-hexahydropyrazino[1’,2’:1,6]pyrido[3,4-b]indole-1,4-dione] |  | 0.82 µM

Further lines, results first:

Row | melting point | IC50 (recombinant human PDE5) | SMILES
15 | 200 to 204 °C | > 10 µM | NCCN1CC(=O)N2[C@@H](c3ccc(Cl)cc3)c3[nH]c4ccccc4c3C[C@@H]2C1=O [Compound 6f, (6S,12aR)-2-(2-Amino-ethyl)-6-(4-chloro-phenyl)-2,3,6,7,12,12a-hexahydro-pyrazino[1’,2’:1,6]pyrido[3,4-b]indole-1,4-dione]
16 |  | 0.84 µM | O=C1[C@H]2Cc3c([nH]c4ccccc34)[C@@H](c3ccc(Br)cc3)N2C(=O)CN1CCO [Compound 7a, (6R,12R)-6-(4-Bromo-phenyl)-2-(2-hydroxy-ethyl)-2,3,6,7,12,12a-hexahydro-pyrazino[1’,2’:1,6]pyrido[3,4-b]indole-1,4-dione]
17 |  | 2.4 µM | NCCN1CC(=O)N2[C@H](c3ccc(Br)cc3)c3[nH]c4ccccc4c3C[C@@H]2C1=O [Compound 7b, (6R,12R)-2-(2-Amino-ethyl)-6-(4-bromo-phenyl)-2,3,6,7,12,12a-hexahydro-pyrazino[1’,2’:1,6]pyrido[3,4-b]indole-1,4-dione]
18 |  | 2.7 µM | NCCCCN1CC(=O)N2[C@H](c3ccc(Br)cc3)c3[nH]c4ccccc4c3C[C@@H]2C1=O [Compound 7d, (6R,12R)-2-(4-Amino-butyl)-6-(4-bromo-phenyl)-2,3,6,7,12,12a-hexahydro-pyrazino[1’,2’:1,6]pyrido[3,4-b]indole-1,4-dione]
19 |  | > 10 µM | O=C1[C@H]2Cc3c([nH]c4ccccc34)[C@H](c3ccc(Br)cc3)N2C(=O)CN1CCO [Compound 7e, (6S,12R)-6-(4-Bromo-phenyl)-2-(2-hydroxy-ethyl)-2,3,6,7,12,12a-hexahydro-pyrazino[1’,2’:1,6]pyrido[3,4-b]indole-1,4-dione]
20 |  | > 10 µM | NCCN1CC(=O)N2[C@@H](c3ccc(Br)cc3)c3[nH]c4ccccc4c3C[C@@H]2C1=O [Compound 7f, (6S,12R)-2-(2-Amino-ethyl)-6-(4-bromo-phenyl)-2,3,6,7,12,12a-hexahydro-pyrazino[1’,2’:1,6]pyrido[3,4-b]indole-1,4-dione]
21 |  | 3.2 µM | NCCCCN1CC(=O)N2[C@@H](c3ccc(Br)cc3)c3[nH]c4ccccc4c3C[C@@H]2C1=O [Compound 7h, (6S,12R)-2-(4-Amino-butyl)-6-(4-bromo-phenyl)-2,3,6,7,12,12a-hexahydro-pyrazino[1’,2’:1,6]pyrido[3,4-b]indole-1,4-dione]
22 |  | > 10 µM | O=C1[C@@H]2Cc3c([nH]c4ccccc34)[C@H](c3ccc(Br)cc3)N2C(=O)CN1CCO [Compound 7i, (6S,12S)-6-(4-Bromo-phenyl)-2-(2-hydroxy-ethyl)-2,3,6,7,12,12a-hexahydro-pyrazino[1’,2’:1,6]pyrido[3,4-b]indole-1,4-dione]
23 |  | > 10 µM | NCCN1CC(=O)N2[C@@H](c3ccc(Br)cc3)c3[nH]c4ccccc4c3C[C@H]2C1=O [Compound 7j, (6S,12S)-2-(2-Amino-ethyl)-6-(4-bromo-phenyl)-2,3,6,7,12,12a-hexahydro-pyrazino[1’,2’:1,6]pyrido[3,4-b]indole-1,4-dione]
24 |  | > 10 µM | NCCCCN1CC(=O)N2[C@@H](c3ccc(Br)cc3)c3[nH]c4ccccc4c3C[C@H]2C1=O [Compound 7l, (6S,12S)-2-(4-Amino-butyl)-6-(4-bromo-phenyl)-2,3,6,7,12,12a-hexahydro-pyrazino[1’,2’:1,6]pyrido[3,4-b]indole-1,4-dione]
25 |  | 0.6 µM | O=C1[C@@H]2Cc3c([nH]c4ccccc34)[C@@H](c3ccc(Br)cc3)N2C(=O)CN1CCO [Compound 7m, (6R,12S)-6-(4-Bromo-phenyl)-2-(2-hydroxy-ethyl)-2,3,6,7,12,12a-hexahydro-pyrazino[1’,2’:1,6]pyrido[3,4-b]indole-1,4-dione]
26 |  | 0.9 µM | NCCN1CC(=O)N2[C@H](c3ccc(Br)cc3)c3[nH]c4ccccc4c3C[C@H]2C1=O [Compound 7n, (6R,12S)-2-(2-Amino-ethyl)-6-(4-bromo-phenyl)-2,3,6,7,12,12a-hexahydro-pyrazino[1’,2’:1,6]pyrido[3,4-b]indole-1,4-dione]
27 |  | 3.5 µM | NCCCCN1CC(=O)N2[C@H](c3ccc(Br)cc3)c3[nH]c4ccccc4c3C[C@H]2C1=O [Compound 7p, (6R,12S)-2-(4-Amino-butyl)-6-(4-bromo-phenyl)-2,3,6,7,12,12a-hexahydro-pyrazino[1’,2’:1,6]pyrido[3,4-b]indole-1,4-dione]
